The values below come from US9005670B2, “Use of histone acetyltransferase inhibitors as novel anti-cancer therapies” (The Johns Hopkins University, priority 2010, dated 2015).

Assay [1] concerns WM35 melanoma cells. Kind of assay: senescence-associated beta galactosidase staining. The conditions noted are these: 72 hours, low and high serum concentrations. It is filed as cell-based, human. How it is done: FIG. 14A includes scatter plots. […] WM35 melanoma cells were also treated with camptothecin as a positive control for apoptosis. FIGS. 14B and 14C include images of the treated cells stained for senescence-associated beta galactosidase.

The test system of assay [2] is three melanoma and three non-small cell lung cancer lines. Kind of assay: 3H-thymidine incorporation, melanoma and lung cancer lines. The class given is cell-based, human. To be noted: 24 hours; C646 10 μM, Lys-CoA-Tat 25 μM. The source says:
The following cell lines were used: WM35 (melanoma), WM983A (melanoma), 1205Lu (melanoma), H23 (NSCLC), H838 (NSCLC), and H1395 (NSCLC). Melanoma cells were maintained in Dulbecco's Modified Eagle Medium. NSCLCs were maintained in RPMI Medium 1640. Both types of media were supplemented with 10% fetal bovine serum (FBS), penicillin-streptomycin, and L-glutamine. Media, pen-strep, and L-glutamine were purchased from Invitrogen. FBS was purchased from Gemini Bio-Products (#100106). […] Compound stocks (10-20 mM in anhydrous DMSO) were directly added to culture media at desired concentrations. DMSO concentration was kept constant at 0.2% between different treatment conditions. Cells were seeded in 96-well plates at ˜5000 cells per well on average, depending on each cell line's doubling time. After attachment, cells were treated with p300 inhibitors, control compounds, or DMSO for 24 h. After treatment, ^3H-thymidine (1 mCi/ml stock) was added to media at 10 μCi/ml final concentration. Cells were incubated for an additional 5 hours, then trypsinized and collected onto a filter mat using a Cell Harvester (PerkinElmer). Radioactivity was measured with a MicroBeta plate reader (PerkinElmer). Each sample was tested in triplicate.

Assay [3] has as its system global histone H3 acetylation in WM983A cells. As to the kind of experiment: histone H3 acetylation Western blot in WM983A. It is filed as cell-based, human. The conditions noted are these: 6 hours, increasing doses. As to the method:
Cells were treated with each compound for 24 hours, and proliferation was measured via ^3H-thymidine incorporation. […] Nuclear lysates were subjected to Western blot analysis for acetylated H3 (Upstate 06-599). Total H3 (Abeam ab1791) was blotted as a loading control.
(In general: Immunoblotting shows a protein as a band on a membrane.)

The test system of assay [4] is histone H3 and H4 acetylation in C3H 10T1/2 mouse fibroblasts. Kind of assay: histone acetylation Western blot in mouse cells. It is filed as cell-based. To be noted: 25 μM, 1-3 hours. From the text:
Histones in mammalian cells show characteristic rates of turnover of acetylation, with a majority showing slower rates and a very minor fraction showing very fast turnover. This latter fraction has been associated with gene activation, and is defined by rapid hyperacetylation in the presence of deacetylase inhibitors such as Trichostatin A (TSA). In addition to SDS gels (FIG. 9A), Acid-Urea gels (AU, FIG. 9B) were used, on which loss of a positive charge upon lysine acetylation retards migration, producing a ladder of bands corresponding to integral changes in acetylation.
C3H 10T1/2 mouse fibroblasts were grown in DMEM with 10% FCS at 37° C. with 5% CO2. Confluent cultures were rendered quiescent in DMEM with 0.5% FCS for 18-20 h prior to treatment. […] Antibodies were used at the following concentrations: total H3 (1:10000; ab7834; Abcam); H4K12ac (1:2500; 06-761; Upstate). Rabbit anti-H3K9ac (1:10000) antibodies were generated in-house. Histones were isolated from cells by acid extraction, separated by SDS and acid-urea polyacrylamide gel electrophoresis and analyzed by Western blotting.

Assay [5] deals with NCI-60 panel of tumor cell lines. As to the kind of experiment: NCI-60 DTP human tumor cell line screen. It is filed as cell-based. To be noted: 48 hours. As to the method: The in vitro cancer screen was performed at the National Cancer Institute as described in detail at http://dtp.nci.nih.gov/branches/btb/ivelsp.html.
Briefly, cells were plated in 96 well plates at a concentration of 5,000-40,000 cells/well. […] Using the absorbance measurements [time zero, (Tz), control growth, (C), and test growth in the presence of drug at the five concentration levels (Ti)], the percentage growth was calculated at each of the drug concentrations levels. Percentage growth inhibition was calculated as: [(Ti−Tz)/(C−Tz)]×100 for concentrations for which Ti≧Tz [(Ti−Tz)/Tz]×100 for concentrations for which Ti<Tz where Tz is time zero, C is control growth, and Ti is test growth in the presence of drug at the five concentration levels.

Regarding `CC1=NN(c2ccc(C(=O)O)cc2)C(=O)C1=Cc1ccc(-c2cc(C)c(C)cc2[N+](=O)[O-])o1` [Compound C646, 4-(4,5-dihydro-3-methyl-4-((5-(4,5-dimethyl-2-nitrophenyl)furan-2-yl)methylene)-5-oxopyrazol-1-yl)benzoic acid], the senescence result in assay [1] is “induced sensecence in WM35 cells”. The 3H-thymidine incorporation entry in assay [2] is recorded as “capable of reducing ^3H-thymidine incorporation in several of these human cancer lines”. In addition, the “global histone H3 acetylation” value in assay [3] was “dose-dependent reduction”. In assay [4], the “basal acetylation levels of H3 and H4” value is “slightly diminished”. Also, the “TSA-inducible acetylation of histones H3 and H4” value in assay [4] (TSA 33 nM final 30 min) is given as “virtually completely inhibited”. For the same compound, the “growth inhibition / cell death” value in assay [5] is listed as “significant growth inhibition and/or tumor cell death”.
